Results on 2 compounds are retold here after patent US20200239530A1, “COMPOUNDS AND METHODS OF MODULATING PROTEIN DEGRADATION” (Vividion Therapeutics, Inc., priority 2017, published 2020).

The target of test [1] is T1, L2HGDH L-2-hydroxyglutarate dehydrogenase, mitochondrial (Homo sapiens, UniProt Q9H9P8).
T1 construct: Cells were resuspended in cold PBS on ice and sonicated with a probe sonicator to achieve lysis; endogenous in cells
T1 sequence (Q9H9P8 52-463): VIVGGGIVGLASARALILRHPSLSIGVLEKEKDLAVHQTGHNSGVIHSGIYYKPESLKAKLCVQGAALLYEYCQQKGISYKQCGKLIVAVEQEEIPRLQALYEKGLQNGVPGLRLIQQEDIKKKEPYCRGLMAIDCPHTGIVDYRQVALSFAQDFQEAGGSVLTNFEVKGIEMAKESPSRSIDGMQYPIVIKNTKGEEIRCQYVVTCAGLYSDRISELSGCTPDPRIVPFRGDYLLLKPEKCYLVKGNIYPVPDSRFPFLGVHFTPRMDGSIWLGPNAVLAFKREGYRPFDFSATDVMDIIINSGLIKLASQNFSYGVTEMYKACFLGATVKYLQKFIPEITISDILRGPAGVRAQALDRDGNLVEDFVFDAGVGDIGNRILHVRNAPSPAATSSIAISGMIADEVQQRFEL
Kind of test: Cysteine liganding, probe competition. The test is classed as binding. Put shortly:
(§1)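 Read-out is loss of desthiobiotin iodoacetamide labelling at cysteines, measured on streptavidin-enriched tryptic peptides. Compound preincubation ran 1 hr at 25° C in PBS lysate holding 5 mg/ml proteome before the probe was added.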

The target in test [2] is T2, ALDH18A1 Delta-1-pyrroline-5-carboxylate synthase (Homo sapiens, UniProt P54886).
T2 construct: Cells were resuspended in cold PBS on ice and sonicated with a probe sonicator to achieve lysis; endogenous in cells
T2 sequence (P54886 1-795): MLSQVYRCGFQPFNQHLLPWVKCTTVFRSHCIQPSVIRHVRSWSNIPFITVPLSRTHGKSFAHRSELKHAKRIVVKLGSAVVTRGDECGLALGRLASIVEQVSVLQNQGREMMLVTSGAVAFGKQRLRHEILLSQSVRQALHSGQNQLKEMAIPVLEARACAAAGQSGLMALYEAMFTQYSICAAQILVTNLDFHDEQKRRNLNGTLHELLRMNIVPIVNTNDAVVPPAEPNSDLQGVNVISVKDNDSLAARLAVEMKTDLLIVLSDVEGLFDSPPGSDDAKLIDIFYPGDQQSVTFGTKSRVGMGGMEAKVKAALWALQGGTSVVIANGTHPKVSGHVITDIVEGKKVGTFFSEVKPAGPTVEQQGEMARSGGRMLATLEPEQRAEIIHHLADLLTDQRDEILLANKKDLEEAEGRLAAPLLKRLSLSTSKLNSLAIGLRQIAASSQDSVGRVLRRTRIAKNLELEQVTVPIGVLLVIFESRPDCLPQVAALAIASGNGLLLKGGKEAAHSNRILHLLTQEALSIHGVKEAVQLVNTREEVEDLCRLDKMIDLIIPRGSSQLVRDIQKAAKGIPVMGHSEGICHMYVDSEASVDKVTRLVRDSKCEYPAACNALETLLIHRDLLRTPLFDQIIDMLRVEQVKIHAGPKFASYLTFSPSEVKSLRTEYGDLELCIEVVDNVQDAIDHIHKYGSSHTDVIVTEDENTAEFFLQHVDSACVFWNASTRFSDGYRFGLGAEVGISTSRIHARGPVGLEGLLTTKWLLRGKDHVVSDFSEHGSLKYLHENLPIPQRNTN
Briefly: Cysteine liganding, probe competition. The format is binding. Put shortly: as §1

As to `O=C(CCl)Nc1cc(C(F)(F)F)cc(C(F)(F)F)c1` [KBO3], in test [1] (uniprot Q9H9P8), the “100 Max” value came to 39.03, the 100 ave is 26.9925, the “500 Max” value is reported as 70.21 and the 500 ave came to 67.435. Moreover, in test [2] (uniprot P54886), the “100 Max” value is listed as 34.21, the 100 ave worked out at 13.91, the “500 Max” value was found to be 66.31 and the 500 ave is recorded as 66.23.

Turning to `COc1ccc2c(c1)CCCN2C(=O)CCl` [KB02], the Liganded entry is listed as “YES” in test [1] (L2HGDH Res# 187, uniprot Q9H9P8) and “YES” in test [2] (ALDH18A1 Res# 612, uniprot P54886).
